Measurements as given in the supplement of paper PMC4862054.
Where “and” joins values, the source holds several entries; their conditions need not be identical. Equal entries are not always repeated.

Columns and labels:
Settings in all cases: incubation time: 72 h
CAL-148 [1] = experiment: normalised response (% of control), CellTiter-Glo; higher = more viable cells (100 = DMSO, 0 = benzethonium chloride kill control)
In short: (§1)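 In 384-well plates holding compound at 5 concentrations in 10-fold steps over a 10,000-fold range specific to each compound, breast cancer cell lines were seeded as 20 µl suspension and incubated 72 h. CellTox Green fluorescence was measured at 485/520 nm, after which CellTiter-Glo luminescence was measured following 10 min at room temperature. Plate signals were normalised to 0.1 % DMSO (100) and a positive kill control (0), and each value is the normalised signal at a single concentration.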

MDA-MB-453 [2] = experiment: as above
In short: as §1

HDQ-P1 [3] = experiment: as above
In short: as §1

DU-4475 [4] = experiment: as above
In short: as §1

HCC1143 [5] = experiment: as above
In short: as §1

CAL-51 [6] = experiment: as above
In short: as §1

BT-549 [7] = experiment: as above
In short: as §1

HCC1937 [8] = experiment: as above
In short: as §1

CAL-85-1 [9] = experiment: as above
In short: as §1

MDA-MB-231 [10] = experiment: as above
In short: as §1

MCF-10A = experiment: as above
In short: as §1

BT-474 [11] = experiment: as above
In short: as §1

MDA-MB-436 [12] = experiment: as above
In short: as §1

HCC1599 [13] = experiment: as above
In short: as §1

MFM-223 [14] = experiment: as above
In short: as §1

Hs578T [15] = experiment: as above
In short: as §1

SK-BR-3 [16] = experiment: as above
In short: as §1

MDA-MB-468 [17] = experiment: as above
In short: as §1

CAL-120 [18] = experiment: as above
In short: as §1

CAL-148 [19] = experiment: normalised viability (% of control), CellTiter-Blue; higher = more viable cells (100 = DMSO, 0 = benzethonium chloride kill control)
Procedure: (§2)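 DSRT, CellTiter-Blue viability, 72 h incubation. Signal is normalised to DMSO and benzethonium chloride controls. Value is the normalised response at dose 1.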

MDA-MB-453 [20] = experiment: as above
Procedure: as §2

HDQ-P1 [21] = experiment: as above
Procedure: as §2

DU-4475 [22] = experiment: as above
Procedure: as §2

HCC1143 [23] = experiment: as above
Procedure: as §2

CAL-51 [24] = experiment: as above
Procedure: as §2

BT-549 [25] = experiment: as above
Procedure: as §2

HCC1937 [26] = experiment: as above
Procedure: as §2

CAL-85-1 [27] = experiment: as above
Procedure: as §2

MDA-MB-231 [28] = experiment: as above
Procedure: as §2

BT-474 [29] = experiment: as above
Procedure: as §2

MDA-MB-436 [30] = experiment: as above
Procedure: as §2

HCC1599 [31] = experiment: as above
Procedure: as §2

MFM-223 [32] = experiment: as above
Procedure: as §2

Hs578T [33] = experiment: as above
Procedure: as §2

SK-BR-3 [34] = experiment: as above
Procedure: as §2

MDA-MB-468 [35] = experiment: as above
Procedure: as §2

CAL-120 [36] = experiment: as above
Procedure: as §2

Compound	normalised response (CAL-148 [1]) [%]	normalised response (MDA-MB-453 [2]) [%]	normalised response (HDQ-P1 [3]) [%]	normalised response (DU-4475 [4]) [%]	normalised response (HCC1143 [5]) [%]	normalised response (CAL-51 [6]) [%]	normalised response (BT-549 [7]) [%]	normalised response (HCC1937 [8]) [%]	normalised response (CAL-85-1 [9]) [%]	normalised response (MDA-MB-231 [10]) [%]	normalised response (MCF-10A) [%]	normalised response (BT-474 [11]) [%]	normalised response (MDA-MB-436 [12]) [%]	normalised response (HCC1599 [13]) [%]	normalised response (MFM-223 [14]) [%]	normalised response (Hs578T [15]) [%]	normalised response (SK-BR-3 [16]) [%]	normalised response (MDA-MB-468 [17]) [%]	normalised response (CAL-120 [18]) [%]	normalised viability (CAL-148 [19])	normalised viability (MDA-MB-453 [20])	normalised viability (HDQ-P1 [21])	normalised viability (DU-4475 [22])	normalised viability (HCC1143 [23])	normalised viability (CAL-51 [24])	normalised viability (BT-549 [25])	normalised viability (HCC1937 [26])	normalised viability (CAL-85-1 [27])	normalised viability (MDA-MB-231 [28])	normalised viability (BT-474 [29])	normalised viability (MDA-MB-436 [30])	normalised viability (HCC1599 [31])	normalised viability (MFM-223 [32])	normalised viability (Hs578T [33]) [%]	normalised viability (SK-BR-3 [34])	normalised viability (MDA-MB-468 [35])	normalised viability (CAL-120 [36])
O=C(/C=C/c1cccc(S(=O)(=O)Nc2ccccc2)c1)NO [Belinostat] (1 nM)	99.9	97	93.5	98.9	91.8	75.1	96.1	96.5	97.8	95.8	87	91	91.7	97.6	89.2	92.9	87.8	94.9	96.6	97.1%	101%	84.2%	93.1%	107%	102%	89.5%	111%	92.5%	102%	106%	120%	97.1%	93.4%	109	91.5%	103%	97.4%
O=C(Nc1ccncc1)C(=O)c1cn(Cc2ccc(Cl)cc2)c2ccccc12 [Indibulin] (1 nM)	109	113	106	109	97.2	59.7	104	100	106	102	101	103	103	113	107	100	110	103	99.1	111%	103%	77.9%	121%	95.7%	106%	100%	95.8%	98.9%	119%	104%	161%	109%	97%	111	102%	102%	92.1%
COc1cc(OC2CCN(C)CC2)ccc1Nc1ncc2c(n1)n(C1CCCC1)c(=O)n2C [AZ 3146] (1 nM)	101	112	98.4	90.9	98.9	101	107	95.9	99.7	102	94.2	95.5	85.8	125	98.2	93.7	98.3	101	105	109%	94.3%	88.3%	98.8%	128%	92.4%	84.3%	95.2%	114%	92.2%	98.9%	103%	126%	109%	89.2	107%	105%	116%
Oc1ccc2c(c1)CC[C@H](c1ccccc1)[C@@H]2c1ccc(OCCN2CCCC2)cc1 [Lasofoxifene] (0.1 nM)	109	115	104	102	104	86.3	97.1	100	95.4	106	109	106	99.2	104	103	99.6	113	106	107	115%	95%	87%	93.1%	76.4%	104%	114%	80.3%	83.1%	90.2%	107%	102%	92.2%	89.1%	96.6	97.1%	99.4%	83.3%
S=P(N1CC1)(N1CC1)N1CC1 [Thio-TEPA] (10 nM)	–	–	–	–	–	–	–	–	–	–	–	–	–	–	–	–	–	–	–	102%	104%	109%	88.7%	97.9%	94%	106%	90%	92.8%	94.8%	100%	99.2%	95.7%	101%	106	92.1%	107%	86.2%
Cc1cc(Nc2cc(CN3CCOCC3)c3nc(C)c(Cc4ccc(Cl)cc4F)n3n2)n[nH]1 (1 nM)	–	–	–	–	–	–	–	–	–	–	–	–	–	–	–	–	–	–	–	95.6%	85.3%	65.2%	119%	88.6%	98%	97.8%	85.9%	82.1%	89.5%	92.4%	87.7%	110%	93.8%	107	104%	103%	86.9%
COC(=O)c1ccc2c(c1)NC(=O)/C2=C(\Nc1ccc(N(C)C(=O)CN2CCN(C)CC2)cc1)c1ccccc1 [BIBF 1120] (1 nM)	–	–	–	–	–	–	–	–	–	–	–	–	–	–	–	–	–	–	–	105%	101%	114%	112%	95.7%	99.7%	119%	117%	94.3%	129%	124%	114%	87.2%	91.8%	109	93.3%	108%	83.6%
CCc1c2c(nc3ccc(OC(=O)N4CCC(N5CCCCC5)CC4)cc13)-c1cc3c(c(=O)n1C2)COC(=O)[C@]3(O)CC [Irinotecan] (1 nM)	98.3	114	97.3	104	93.9	81.6	109	97.2	116	90.3	96.5	98.5	97.9	105	94	95.9	110	107	94.2	91.5% and 110%	–	89% and 101%	98.7% and 106%	87.2% and 101%	106% and 112%	95.7% and 90.7%	–	83% and 98.7%	82.3% and 98.2%	103% and 98%	97.6% and 117%	–	93.6% and 104%	–	84.7% and 99.9%	96.8% and 102%	–
COc1cc2ncnc(Nc3ccc(F)c(Cl)c3)c2cc1OCCCN1CCOCC1 [Gefitinib] (1 nM)	107	109	94.4	99.3	102	93.1	94.8	91.6	101	97.2	98.8	97.7	85.5	99.2	105	99	108	105	97.6	107% and 106%	97.3% and 100%	108% and 86.3%	104% and 98.6%	73.7% and 90.5%	108% and 107%	120% and 111%	91.6% and 89.4%	85.3% and 81.5%	94.2% and 90.6%	–	92.2% and 90.9%	85.7% and 96.3%	89.3% and 83.4%	–	87.4% and 97.4%	90% and 110%	77.2% and 85.9%
Nc1cc(C(F)(F)F)c(-c2cc(N3CCOCC3)nc(N3CCOCC3)n2)cn1 [BKM-120] (1 nM)	–	–	–	–	–	–	–	–	–	–	–	–	–	–	–	–	–	–	–	105%	103%	99%	114%	88.4%	98%	97.8%	95.9%	89.5%	110%	116%	104%	82.8%	93%	121	99.7%	96.6%	85.6%
